The values below come from US9056874B2, “Complement pathway modulators and uses thereof” (NOVARTIS AG, priority 2012, dated 2015).

For the experiment, the target named is factor B (Homo sapiens, UniProt P00751). Description: factor B inhibition assay of Biological Example 1. The conditions noted are these: IC50 (nM), assay of Biological Example 1 (Table 1). Details: CVF-Bb complex prepared from purified cobra venom factor (1 μM), recombinant human complement factor B; made in house; host or cells: drosophila cells (factor B); E. coli (factor D used to form the complex). Type of experiment: biochemical.

Molecules are shown by their SMILES.

What is called IC50 is the concentration at which inhibition is half-maximal.

factor B, sequence (P00751 260-764 limits assumed): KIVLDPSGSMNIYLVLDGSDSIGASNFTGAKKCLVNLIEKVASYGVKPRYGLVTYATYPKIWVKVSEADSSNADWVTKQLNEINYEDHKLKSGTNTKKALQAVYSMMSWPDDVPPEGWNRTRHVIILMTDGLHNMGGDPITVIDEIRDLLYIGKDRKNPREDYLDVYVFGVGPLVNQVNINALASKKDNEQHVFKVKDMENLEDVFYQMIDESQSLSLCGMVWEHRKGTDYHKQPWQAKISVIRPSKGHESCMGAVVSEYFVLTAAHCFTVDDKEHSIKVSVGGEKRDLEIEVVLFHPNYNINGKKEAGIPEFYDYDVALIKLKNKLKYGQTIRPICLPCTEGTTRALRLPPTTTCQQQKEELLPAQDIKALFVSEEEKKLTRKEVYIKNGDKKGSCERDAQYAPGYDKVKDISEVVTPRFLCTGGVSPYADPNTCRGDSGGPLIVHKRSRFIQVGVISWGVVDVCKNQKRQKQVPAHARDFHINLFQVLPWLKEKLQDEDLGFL
factor B, sequence (Q91132 23-649 partner limits assumed): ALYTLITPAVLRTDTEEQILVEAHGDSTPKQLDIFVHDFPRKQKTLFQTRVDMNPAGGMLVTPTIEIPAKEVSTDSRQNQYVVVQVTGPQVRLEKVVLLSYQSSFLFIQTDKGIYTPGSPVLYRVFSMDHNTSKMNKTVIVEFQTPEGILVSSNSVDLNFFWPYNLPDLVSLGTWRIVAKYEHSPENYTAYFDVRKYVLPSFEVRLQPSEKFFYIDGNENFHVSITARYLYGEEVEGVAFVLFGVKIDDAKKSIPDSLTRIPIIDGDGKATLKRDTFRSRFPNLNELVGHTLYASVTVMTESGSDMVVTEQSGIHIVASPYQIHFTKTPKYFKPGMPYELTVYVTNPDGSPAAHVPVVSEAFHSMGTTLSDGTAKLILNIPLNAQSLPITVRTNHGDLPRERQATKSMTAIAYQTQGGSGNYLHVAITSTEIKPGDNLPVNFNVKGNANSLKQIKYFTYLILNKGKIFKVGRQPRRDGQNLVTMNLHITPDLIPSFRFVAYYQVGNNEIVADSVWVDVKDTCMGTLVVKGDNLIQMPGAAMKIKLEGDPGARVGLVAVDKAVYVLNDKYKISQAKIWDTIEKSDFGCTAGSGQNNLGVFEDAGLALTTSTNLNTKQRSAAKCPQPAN
factor B, sequence (Q91132 733-984 partner limits assumed): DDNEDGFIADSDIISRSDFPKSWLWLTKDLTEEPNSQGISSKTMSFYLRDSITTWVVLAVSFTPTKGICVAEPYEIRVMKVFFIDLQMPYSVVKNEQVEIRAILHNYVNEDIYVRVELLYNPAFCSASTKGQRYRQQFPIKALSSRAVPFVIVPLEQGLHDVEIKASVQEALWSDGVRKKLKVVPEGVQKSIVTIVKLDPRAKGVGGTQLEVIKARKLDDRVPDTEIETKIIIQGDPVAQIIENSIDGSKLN
factor B, sequence (Q91132 1264-1642 partner limits assumed): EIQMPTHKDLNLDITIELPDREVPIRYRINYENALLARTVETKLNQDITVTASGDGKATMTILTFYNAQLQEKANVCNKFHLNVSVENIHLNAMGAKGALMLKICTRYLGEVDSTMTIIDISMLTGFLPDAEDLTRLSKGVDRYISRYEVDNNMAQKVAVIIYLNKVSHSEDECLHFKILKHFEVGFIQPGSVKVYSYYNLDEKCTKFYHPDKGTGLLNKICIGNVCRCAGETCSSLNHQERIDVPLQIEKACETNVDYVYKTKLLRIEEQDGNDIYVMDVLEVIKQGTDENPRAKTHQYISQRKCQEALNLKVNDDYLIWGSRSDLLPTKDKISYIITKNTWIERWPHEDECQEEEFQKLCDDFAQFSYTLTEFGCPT

Consider `Cc1cc(OC(F)F)c(C(O)c2nc3cc(C#N)ccc3[nH]2)c2cc[nH]c12` (single isomer, unassigned; (-)) [3-B b) (−), (−)-2-((5-(difluoromethoxy)-7-methyl-1H-indol-4-yl)(hydroxy)methyl)-1H-benzo[d]imidazole-5-carbonitrile], for which the IC50 came to 250 nM.
For the molecule `Cc1cc(OC(F)F)c(C(C)(N)c2nc3cc(C#N)ccc3[nH]2)c2cc[nH]c12` (single isomer, unassigned; (-)) [5-E b) (−), (−)-2-(1-amino-1-(5-(difluoromethoxy)-7-methyl-1H-indol-4-yl)ethyl)-1H-benzo[d]imidazole-5-carbonitrile], the IC50 worked out at 40 nM.
The figure for `COC(C)(c1nc2cc(C#N)ccc2[nH]1)c1c(OC(F)F)cc(C)c2[nH]ccc12` (single isomer, unassigned; (-)) [8-B b) (−), (−)-2-(1-(5-(difluoromethoxy)-7-methyl-1H-indol-4-yl)-1-methoxyethyl)-1H-benzo[d]imidazole-5-carbonitrile] is 900 nM; for `Cc1cc(S(C)(=O)=O)c(C(C)(N)c2nc3cc(C#N)ccc3[nH]2)c2cc[nH]c12` (single isomer, unassigned; (-)) [13-E b) (−), (−)-2-(1-Amino-1-(7-methyl-5-(methylsulfonyl)-1H-indol-4-yl)ethyl)-1H-benzo[d]imidazole-5-carbonitrile] it is 1410 nM; for `Cc1cc(S(C)(=O)=O)c(C(O)(c2nc3cc(C#N)ccc3[nH]2)C(F)(F)F)c2cc[nH]c12` (single isomer, unassigned; (-)) [14-D b) (−), (−)-2-(2,2,2-trifluoro-1-hydroxy-1-(7-methyl-5-(methylsulfonyl)-1H-indol-4-yl)ethyl)-1H-benzo[d]imidazole-5-carbonitrile] it is 270 nM.
The figure for `COC(c1nc2cc(C#N)ccc2[nH]1)(c1c(S(C)(=O)=O)cc(C)c2[nH]ccc12)C(F)(F)F` (single isomer, unassigned; (-)) [15-D b) (−), (−)-2-(2,2,2-trifluoro-1-methoxy-1-(7-methyl-5-(methylsulfonyl)-1H-indol-4-yl)ethyl)-1H-benzo[d]imidazole-5-carbonitrile] is 680 nM.
For `CNC(c1nc2cc(C#N)ccc2[nH]1)(c1c(S(C)(=O)=O)cc(C)c2[nH]ccc12)C(F)(F)F` (single isomer, unassigned; (-)) [16-B b) (−), (−)-2-(2,2,2-trifluoro-1-(7-methyl-5-(methylsulfonyl)-1H-indol-4-yl)-1-(methylamino)ethyl)-1H-benzo[d]imidazole-5-carbonitrile], the IC50 is 180 nM.
On to `Cc1cc(S(C)(=O)=O)c(C(N)(c2nc3cc(C#N)ccc3[nH]2)C(F)(F)F)c2cc[nH]c12` (single isomer, unassigned; (-)) [17-B b) (−), (−)-2-(1-amino-2,2,2-trifluoro-1-(7-methyl-5-(methylsulfonyl)-1H-indol-4-yl)ethyl)-1H-benzo[d]imidazole-5-carbonitrile], for which the half-inhibitory concentration (IC50) worked out at 1330 nM.
Turning to `COc1cc(C)c2[nH]ccc2c1C(O)c1nc2cc(C#N)ccc2[nH]1` (single isomer, unassigned; (-)) [24-B b) (−), (−)-2-(hydroxy(5-methoxy-7-methyl-1H-indol-4-yl)methyl)-1H-benzo[d]imidazole-5-carbonitrile], the half-inhibitory concentration (IC50) amounted to 90 nM.
The figure for `CCOc1cc(C)c2[nH]ccc2c1C(O)c1nc2cc(C#N)ccc2[nH]1` (single isomer, unassigned; (-)) [24-C b) (−), (−)-2-((5-ethoxy-7-methyl-1H-indol-4-yl)(hydroxy)methyl)-1H-benzo[d]imidazole-5-carbonitrile] is 600 nM.
As for `Cc1cc(OC(C)C)c(C(O)c2nc3cc(C#N)ccc3[nH]2)c2cc[nH]c12` (single isomer, unassigned; (-)) [24-D b) (−), (−)-2-(hydroxy(5-isopropoxy-7-methyl-1H-indol-4-yl)methyl)-1H-benzo[d]imidazole-5-carbonitrile], the figure is 490 nM.
